Where two headings read alike, the source gives them in different places.
What was measured:
[1] = In vitro reverse iontophoretic extraction of mannitol and sodium (Example 3, first experiment)
Experimental: The anode was placed in the sub-dermal, “donor” chamber, which contained a physiological pH 7.4 buffer (25 mM Tris/TrisHCl+133 mM NaCl) to which the analyte mannitol was added.
In a first experiment, mannitol concentration was 5 mM for the first three hours of experiment and was then increased to 10 mM for a subsequent period of three hours.
(§1) To facilitate the analytical chemistry, the donor solutions were spiked with ^14C-labeled mannitol.
The cathodal (collection) chamber, which contacted the outer surface of the skin contained a 25 mM Tris/TrisHCl buffer at pH 7.4.
(§2) During the first 3-hour period, the entire content of the cathode solution was withdrawn every 60 minutes and the chamber was refilled with fresh buffer.
During the second 3-hour period, the 5 mM mannitol donor solution was replaced with 10 mM mannitol, and the cathodal chamber was then sampled every 30 minutes.

[2] = In vitro reverse iontophoretic extraction of mannitol and sodium (Example 3, second experiment)
Experimental: In a second experiment, performed under identical conditions to the first (see FIG. 11), mannitol concentration was 5 mM for the first three hours of experiment, it was then reduced to 3 mM for a subsequent period of one hour and then increased to 10 mM for a subsequent period of one hour.
as §2
During the second 1-hour period, the 5 mM mannitol donor solution was replaced with 3 mM mannitol, and the cathodal chamber was then sampled every 30 minutes.
During the third 1-hour period, the 3 mM mannitol donor solution was replaced with 10 mM mannitol, and the cathodal chamber was then sampled every 30 minutes.

[3] = In vitro reverse iontophoretic extraction of mannitol and sodium with varied sodium level (Example 4)
Experimental: The anode was placed in the sub-dermal, “donor” chamber, which contained a physiological pH 7.4 buffer (25 mM Tris/TrisHCl+4 mM KCl).
Both the concentration of the analyte of interest and the internal standard were modified during the experiment.
as §1
(§3) The cathodal (collection) chamber, which contacted the outer surface of the skin, contained a 25 mM Tris/TrisHCl buffer at pH 7.4.
as §2
During the final 1-hour period, the donor solution was replaced with 5 mM mannitol/ 133 mM NaCl, and the cathodal chamber was then sampled every 30 minutes.

[4] = In vitro reverse iontophoretic extraction of glucose and sodium (Example 5); assay type: in vitro ADME, pig; settings: subdermal glucose 10 mM
Experimental: The anode was placed in the sub-dermal, “donor” chamber, which contained a physiological pH 7.4 buffer (25 mM Tris/TrisHCl+133 mM NaCl) to which the analyte glucose was added at a concentration of 10 mM.
To facilitate the analytical chemistry, the donor solutions were spiked with tritiated glucose.
as §3
The experimental design was identical to that in FIG. 11, with the exception that glucose spiked with tritiated glucose replaced mannitol spiked with ^14C-labeled mannitol.
During this period, the entire content of the cathode solution was withdrawn every 60 minutes and the chamber was refilled with fresh buffer.

[5] = subdermal lactate 1.74 mM, ammonium 1.56 mM
[6] = human volunteer, 0.3 mA/cm^2, 5.5 hours, 15 min samples, food ingested
[7] = in vivo, 4 mA for 5 minutes, 4.5 cm^2, lithium nitrate electrolyte; cited from earlier work
[8] = subdermal mannitol 5 mM, 60 min
[9] = subdermal mannitol 5 mM, 120 min
[10] = subdermal mannitol 5 mM, 180 min
[11] = subdermal mannitol 10 mM, 270 min
[12] = subdermal mannitol 10 mM, 300 min

Sodium^+ flux [1, 8]: 7.9 ± 0.5 μmol · h^−1 · cm^−2
Sodium^+ flux [1, 9]: 9.7 ± 0.6 μmol · h^−1 · cm^−2
Sodium^+ flux [1, 10]: 10.1 ± 0.4 μmol · h^−1 · cm^−2
Sodium^+ flux ([1]; subdermal mannitol 10 mM, 210 min): 10.3 ± 0.5 μmol · h^−1 · cm^−2
Sodium^+ flux ([1]; subdermal mannitol 10 mM, 240 min): 10.4 ± 0.6 μmol · h^−1 · cm^−2
Sodium^+ flux [1, 11]: 10.3 ± 0.4 μmol · h^−1 · cm^−2
Sodium^+ flux [1, 12]: 10.6 ± 0.3 μmol · h^−1 · cm^−2
Sodium^+ flux ([1]; subdermal mannitol 10 mM, 330 min): 10.7 ± 0.3 μmol · h^−1 · cm^−2
Sodium^+ flux ([1]; subdermal mannitol 10 mM, 360 min): 10.5 ± 0.6 μmol · h^−1 · cm^−2
Sodium^+ flux ([2]; subdermal mannitol 3 mM, 210 min): 10.9 ± 0.7 μmol · h^−1 · cm^−2
Sodium^+ flux ([2]; subdermal mannitol 3 mM, 240 min): 9.7 ± 0.5 μmol · h^−1 · cm^−2
Sodium^+ flux [2, 8]: 8.8 ± 0.7 μmol · h^−1 · cm^−2
Sodium^+ flux [2, 9]: 10.2 ± 0.7 μmol · h^−1 · cm^−2
Sodium^+ flux [2, 10]: 10.4 ± 0.7 μmol · h^−1 · cm^−2
Sodium^+ flux [2, 11]: 9.4 ± 0.6 μmol · h^−1 · cm^−2
Sodium^+ flux [2, 12]: 9.3 ± 0.4 μmol · h^−1 · cm^−2
Sodium^+ flux ([3]; subdermal [Mannitol]/[Na^+] 5/133 mM (last hour), 330 min): 11.2 ± 1.2 μmol · h^−1 · cm^−2
Sodium^+ flux ([3]; subdermal [Mannitol]/[Na^+] 5/133 mM (last hour), 360 min): 11.4 ± 0.3 μmol · h^−1 · cm^−2
Sodium^+ flux ([3]; subdermal [Mannitol]/[Na^+] 5/133 mM, 60 min): 8.4 ± 0.8 μmol · h^−1 · cm^−2
Sodium^+ flux ([3]; subdermal [Mannitol]/[Na^+] 5/133 mM, 120 min): 10.7 ± 0.4 μmol · h^−1 · cm^−2
Sodium^+ flux ([3]; subdermal [Mannitol]/[Na^+] 5/133 mM, 180 min): 11.0 ± 0.3 μmol · h^−1 · cm^−2
Sodium^+ flux ([4]; 60 min): 8.7 ± 0.6 μmol · h^−1 · cm^−2
Sodium^+ flux ([4]; 120 min): 9.8 ± 0.4 μmol · h^−1 · cm^−2
Sodium^+ flux ([4]; 180 min): 10.1 ± 0.3 μmol · h^−1 · cm^−2
Sodium^+ flux ([4]; 240 min): 10.0 ± 0.3 μmol · h^−1 · cm^−2
Sodium^+ flux ([4]; 300 min): 10.2 ± 0.3 μmol · h^−1 · cm^−2
Sodium^+ flux ([4]; 360 min): 10.2 ± 0.3 μmol · h^−1 · cm^−2
Deduced transport number (×100) ([5]; 3 h): 67.72 ± 7.98 ×100
Deduced transport number (×100) ([5]; 5 h): 72.07 ± 1.07 ×100
Iontophoretically extracted flux over the experiment [6]: remained effectively constant
SMILES: [Na+] [Na^+, sodium]
Concentration in the cathode chamber after current passage [7]: ~35 μEq/L

— US20050074810A1, “Method for non-invasilvely determining the relative levels of two biological substances” (priority 2001, published 2005)
